Laboratory results reported in US9085572B2, “4-(pyridin-3-yl)-2(pyridin-2yl)-1,2-dihydro-3H-pyrazol-3-one derivatives as specific HIF-pyrolyl-4-hydroxylase inhibitors for treating cardiovascular and haematological diseases” (Bayer Intellectual Property GmbH, priority 2005, dated 2015).
pEC50, pIC50: −log10 of the molar value. Where a name gives a salt, the structure may show the parent alone.

Assays:
[1] = molecular target: HIF prolyl hydroxylase; assay: Inhibition of the activity of HIF prolyl hydroxylase (VBC complex binding to hydroxylated peptide substrate); assay type: biochemical; details: cell lysate containing prolyl hydroxylase, biotin-DLDLEMLAPYIPMDDDFQL peptide substrate
Protocol: Hydroxylated HIF bonds specifically to the von Hippel-Lindau protein-elongin B-elongin C complex (VBC complex). This interaction occurs only if HIF is hydroxylated on a conserved prolyl radical. It is the basis for the biochemical determination of HIF prolyl hydroxylase activity. The test is carried out as described [Oehme F., Jonghaus W., Narouz-Ott L., Huetter J., Flamme I., Anal. Biochem. 330 (1), 74-80 (2004)]:
A clear 96-well microtiter plate coated with NeutrAvidin HBC (Pierce) is incubated with blocker casein for 30 minutes. The plate is then washed three times with 200 μl each time of wash buffer (50 mM Tris, pH 7.5, 100 mM NaCl, 10% (v/v) blocker casein, 0.05% (v/v) Tween 20) per well. The peptide biotin-DLDLEMLAPYIPMDDDFQL (Eurogentec, 4102 Seraing, Belgium) is added in a concentration of 400 nM in 100 μl wash buffer. This peptide serves as a substrate for the prolyl hydroxylation and is bonded to the microtiter plate. After incubation for 30 minutes, the plate is washed three times with wash buffer, incubated with 1 mM biotin in blocker casein for 30 minutes and then washed again three times with wash buffer.
To carry out the prolyl hydroxylase reaction, the peptide substrate bonded to the plate is incubated with a cell lysate containing prolyl hydroxylase for 1 to 60 minutes. The reaction takes place in 100 μl reaction buffer (20 mM Tris, pH 7.5, 5 mM KCl, 1.5 mM MgCl2, 1 μM-1 mM 2-oxoglutarate, 10 μM FeSO4, 2 mM ascorbate) at room temperature. The reaction mixture moreover contains various concentrations of the prolyl hydroxylase inhibitor to be tested. The test substance is preferably, but not exclusively, employed at concentrations of between 1 nM and 100 μM. The reaction is stopped by washing the plate three times with wash buffer.
For quantitative determination of the prolyl hydroxylation, a fusion protein which contains both thioredoxin from E. coli and the VBC complex is added in 80 μl bonding buffer (50 mM Tris, pH 7.5, 120 mM NaCl). After 15 minutes, 10 μl of a solution of polyclonal anti-thioredoxin antibodies from rabbit in bonding buffer are added. After a further 30 minutes, 10 μl of a solution of anti-rabbit immunoglobulin coupled to horseradish peroxidase in bonding buffer are added. After incubation at room temperature for 30 minutes, the plate is washed three times with wash buffer in order to remove non-bonded VBC complex and antibodies. To determine the amount of bonded VBC complex, the plate is incubated with TMB for 15 minutes. The color reaction is ended by addition of 100 μl 1 M sulfuric acid. The amount of bonded VBC complex is determined by measurement of the optical density at 450 nm. It is proportional to the amount of hydroxylated proline in the peptide substrate.
Alternatively, a VBC complex coupled to europium (Perkin Elmer) can be used for detection of the prolyl hydroxylation. In this case, the amount of bonded VBC complex is determined by the fluorescence with respect to time. The use of VBC complex labeled with [^35S]-methionine is moreover possible. For this, the radioactively labeled VBC complex can be prepared by in vitro transcription-translation in reticulocyte lysate.

[2] = test system: recombinant A549 cell line with HRE-controlled luciferase reporter; assay: Cellular, functional in vitro test: luciferase reporter under hypoxia-responsible elements in recombinant A549 cell line; assay type: cell-based; details: Homo sapiens, luciferase light signal six to 24 hours after addition of test substance
Text: The activity of the compounds according to the invention is quantified with the aid of a recombinant cell line. The cell is originally derived from a human lung carcinoma cell line (A549, ATCC: American Type Culture Collection, Manassas, Va. 20108, USA). The test cell line is transfected in a stable manner with a vector which contains the reporter gene of Photinus pyralis luciferase (called luciferase in the following) under the control of an artificial minimal promoter. The minimal promoter comprises two hypoxia-responsible elements upstream of a TATA box [Oehme F., Ellinghaus P., Kolkhof P., Smith T. J., Ramakrishnan S., Hütter J., Schramm M., Flamme I., Biochem. Biophys. Res. Commun. 296 (2), 343-9 (2002)]. Under the effect of hypoxia (e.g. culturing in the presence of 1% oxygen for 24 hours) or under the action of non-selective dioxygenase inhibitors (e.g. desferroxamine in a concentration of 100 μM, cobalt chloride in a concentration of 100 μM or N-oxalylglycine diethyl ester in a concentration of 1 mM), the test cell line produces luciferase, which can be detected and quantified with the aid of suitable bioluminescence reagents (e.g. Steady-Glo® Luciferase Assay System, Promega Corporation, Madison, Wis. 53711, USA) and a suitable luminometer.
Test Procedure: On the day before the test, the cells are plated out in an exactly calculated amount of culture medium (DMEM, 10% FCS, 2 mM glutamine) in 384- or 1,536-well microtiter plates and kept in a cell incubator (96% atmospheric humidity, 5% v/v CO2, 37° C.). On the test day, the test substances are added to the culture medium in graduated concentrations. No test substance is added to the cells in batches serving as negative controls. As a positive control for determination of the sensitivity of the cell to inhibitors, desferroxamine e.g. is added in a final concentration of 100 μM. Six to 24 hours after transfer of the test substances into the wells of the microtiter plate, the resulting light signal is measured in the luminometer. A dose/effect relationship is plotted with the aid of the measurement values, which serves as the basis for determining the half-maximum active concentration (call the EC50 value in the following).

| SMILES | pIC50 [1] | pEC50 [2] |
| --- | --- | --- |
| Cc1ccnc(-n2[nH]cc(-c3ccc(C#N)nc3)c2=O)c1 [Example 34, 4-(6-Cyanopyridin-3-yl)-2-(4-methylpyridin-2-yl)-1,2-dihydro-3H-pyrazol-3-one hydrochloride] | 6.74 | 5.33 |
| O=c1c(-c2cccnc2)c[nH]n1-c1ccc(CO)cn1 [Example 23, 2-(5-Hydroxymethyl-pyridin-2-yl)-4-pyridin-3-yl-1,2-dihydro-3H-pyrazol-3-one hydrochloride] | 6.07 | 4.87 |
| NCc1ccnc(-n2[nH]cc(-c3cccnc3)c2=O)c1 [Example 35, 2-[4-(Aminomethyl)pyridin-2-yl]-4-pyridin-3-yl-1,2-dihydro-3H-pyrazol-3-one dihydrochloride] | 5.64 | 4.76 |
| O=c1c(-c2cccnc2)c[nH]n1-c1ccccn1 [Example 6, 2-Pyridin-2-yl-4-pyridin-3-yl-1,2-dihydro-3H-pyrazol-3-one] | 6.37 | 5.31 |
| O=C(Cc1ccccc1)NCc1ccnc(-n2[nH]cc(-c3cccnc3)c2=O)c1 [Example 46, N-{[2-(5-Oxo-4-pyridin-3-yl-2,5-dihydro-1H-pyrazol-1-yl)pyridin-4-yl]methyl}-2-phenylacetamide hydrochloride] | 6.15 | 5.13 |
| Cc1ncccc1-c1c[nH]n(-c2ccccn2)c1=O [Example 26] | 6.12 | 5.22 |
| CC(=O)NCc1ccnc(-n2[nH]cc(-c3cccnc3)c2=O)c1 [Example 47, N-{[2-(5-Oxo-4-pyridin-3-yl-2,5-dihydro-1H-pyrazol-1-yl)pyridin-4-yl]methyl}acetamide hydrochloride] | 5.66 | 4.91 |
| O=C(NCc1ccnc(-n2[nH]cc(-c3cccnc3)c2=O)c1)c1ccccc1 [Example 48, N-{[2-(5-Oxo-4-pyridin-3-yl-2,5-dihydro-1H-pyrazol-1-yl)pyridin-4-yl]methyl}benzamide hydrochloride] | 5.72 | 4.72 |
| O=c1c(-c2cccnc2)c[nH]n1-c1cc(CO)ccn1 [Example 43, 2-[4-(Hydroxymethyl)pyridin-2-yl]-4-pyridin-3-yl-1,2-dihydro-3H-pyrazol-3-one hydrochloride] | 5.82 | 5.12 |
| O=C(CCn1cc(Cl)cn1)NCc1ccnc(-n2[nH]cc(-c3cccnc3)c2=O)c1 [Example 50, 3-(4-Chloro-1H-pyrazol-1-yl)-N-{[2-(5-oxo-4-pyridin-3-yl-2,5-dihydro-1H-pyrazol-1-yl)pyridin-4-yl]methyl}propanamide] | 5.72 | 5.15 |
